Experimental data taken from US7691890B2, “Anti-viral uses of leflunomide products” (priority 1998, dated 2010).
Read-outs that look alike come from different tables or passages of the source.

Tests used:
[1] = cited from earlier work
[2] = system: Influenza A (H3N2); assay: Neutral red uptake test; conditions: IC50 divided by EC50
[3] = system: Influenza B; assay: CPE inhibition test; assay type: cell-based; conditions: for EC50: Influenza B virus, MDCK, read-out: CPE Inhibition test EC50; for CPE Inhibition test SI: Influenza B, IC50 divided by EC50
[4] = system: Rhinovirus Type 5; assay: Neutral red uptake test; assay type: cell-based; conditions: IC50 divided by EC50
[5] = system: Parainfluenza Type 3 Virus; assay: organism not typed; assay type: cell-based, parainfluenza type 3 virus (14702); conditions: for CPE Inhibition test SI: IC50 divided by EC50
[6] = Toxicity to 2.2.15 cells by neutral red dye uptake; assay type: cell-based; conditions: human, 2.2.15 human liver cells
Experimental: Toxicity of test compounds to cultures of 2.2.15 cells was also determined as follows. Four concentrations of each compound were assayed and compared to untreated control cultures. Toxicity was determined by the uptake of neutral red dye, as determined by absorbance at 510 nm relative to untreated cells.

[7] = system: hepatitis B virus (HBV); assay: microbe, parasite or virus in culture; assay type: cell-based; conditions: for EC50 / EC90: Hepatitis B virus, 216 h; for EC90: HBV DNA, 9 day treatment
[8] = system: Respiratory Syncytial Virus A; assay: microbe, parasite or virus in culture; assay type: cell-based, Respiratory syncytial virus (RSV) (A2); conditions: for CPE Inhibition test SI: IC50 divided by EC50
[9] = system: Influenza A (H1N1); assay: CPE inhibition test; assay type: cell-based; conditions: for CPE Inhibition test SI: Influenza A (H1N1), IC50 divided by EC50; for EC50: Influenza A virus, H1N1, MDCK, read-out: CPE Inhibition test EC50
[10] = system: Rhinovirus Type 5; assay type: cell-based; conditions: IC50 divided by EC50
[11] = system: Adenovirus Type 1; assay: Neutral red uptake test; assay type: cell-based, Adenovirus type 1 (65089/Chicago); conditions: IC50 divided by EC50
[12] = system: Influenza A (H3N2); assay: CPE inhibition test; assay type: cell-based; conditions: for CPE Inhibition test SI: Influenza A (H3N2), IC50 divided by EC50; for EC50: Influenza A virus, H3N2, MDCK, read-out: CPE Inhibition test EC50
[13] = system: Measles Virus; assay: microbe, parasite or virus in culture; assay type: cell-based, Measles virus (Chicago strain); conditions: for Neutral Red Uptake test SI: IC50 divided by EC50
[14] = system: Measles Virus; assay: microbe, parasite or virus in culture; assay type: cell-based, Measles virus (Chicago strain); conditions: for CPE Inhibition test SI: IC50 divided by EC50
[15] = system: Influenza A (H1N1); assay: Neutral red uptake test; conditions: IC50 divided by EC50
[16] = system: Respiratory Syncytial Virus A; assay: microbe, parasite or virus in culture; assay type: cell-based, Respiratory syncytial virus (RSV) (A2); conditions: for Neutral Red Uptake test SI: IC50 divided by EC50
[17] = system: Influenza B; assay: Neutral red uptake test; conditions: IC50 divided by EC50
[18] = system: Adenovirus Type 1; assay: CPE inhibition test; assay type: cell-based, Adenovirus type 1 (65089/Chicago); conditions: IC50 divided by EC50
[19] = system: Parainfluenza Type 3 Virus; assay: organism not typed; assay type: cell-based, parainfluenza type 3 virus (14702); conditions: for Neutral Red Uptake test SI: IC50 divided by EC50
[20] = system: CMV pp65, 72 kD IE1, glycoprotein B (gB); assay: Immunohistochemical staining of CMV proteins in infected HUVEC; assay type: cell-based; conditions: CMV VHL/E, 200 μM A771726 or 1 mM PFA
Experimental: Slides were incubated in the presence of absence of the agents for various intervals, acetone-fixed, and stained by the immunoperoxidase method.

[21] = system: CMV DNA polymerase; assay type: biochemical; conditions: extracts of VHL/E-infected HUVEC or P8-infected HFF, various concentrations
[22] = system: CMV DNA; assay: Dot blot quantitation of viral DNA in CMV-infected cells; assay type: cell-based; conditions: CMV P8-infected HFF, 48 hours, 100 μM A771726 or 1 mM PFA; identical results in HUVEC (200 μM)
Experimental: All experiments included infected cultures incubated in the presence of 1 mM PFA as well as uninfected controls. 48 hours post-inoculation cells were harvested by trypsin digestion, washed in PBS, and incubated for 12 hours at 50° C. in 0.1 mg/ml proteinase K (Sigma) in digestion buffer (100 mM NaCl, 10 mM Tris-HCl, 25 mM EDTA, 0.5% SDS). DNA was extracted in phenol/chloroform, precipitated with ammonium acetate/ethanol, and resuspended in TE buffer. Following equalization of concentrations, extracted DNA was serially diluted in 96-well microtiter plates and 0.4 M NaOH/10 mM EDTA was added to each well. DNA was denatured in sealed plates by heating for 10 minutes in a 100° C. waterbath, transferred to nylon membranes (Hybond N, Amersham) using a vacuum dotblot manifold (Bio-Rad Laboratories, Hercules, Calif.), and immobilized by UV cross-linking. The cDNA probe was generated by HindIII digest of cosmid pCM 1015 (Fleckenstein et al., Gene, 18:39, 1982) which contains ˜45 kb of the UL region of the CMV AD169 genome. The probe was α-[^32P]dCTP-labelled by random priming. Unincorporated isotope was removed from labelled probe using a G-50 spin column (Worthington Biochemicals). Membranes were hybridized, washed, and bound probe was detected by autoradiography.

[23] = system: rat CMV (RCMV RA67, Maastricht strain); assay: Rat CMV infection of immunodeficient nude rats, tissue plaque assay; assay type: in vivo; conditions: RCMV i.p., leflunomide 15 mg/kg/day for 14 days, 14 days post-inoculation
[24] = in vivo; cited from earlier work

Nc1ccn(C[C@@H](CO)OCP(=O)(O)O)c(=O)n1 [Cidofovir]
neutropenia ([1]; in vivo): approximately 10 % of recipients

Cc1nocc1C(=O)Nc1ccc(C(F)(F)F)cc1 [Compound 99-126, N-(4-trifluoromethylphenyl)-3-methylisoxazol-4-carboxamide]
Neutral Red Uptake test SI [2]: 1.0 | EC50 [3]: 60 µM | CPE Inhibition test SI [3]: 1.2 | Neutral Red Uptake test SI [4]: 0 | CPE Inhibition test SI [5]: 0 | CC50 [6]: 110 µM | EC50 [7]: > 100 µM | EC90 ([7]; 2.2.15 cells): > 100 µM | anti-viral effect on HBV (in words) ([7]; summary of Table 2): some anti-viral effect | CPE Inhibition test SI [8]: 0 | CPE Inhibition test SI [9]: <3.2 | EC50 [9]: > 20 µM | CPE Inhibition test SI [10]: 1 | Neutral Red Uptake test SI [11]: 0 | CPE Inhibition test SI [12]: 0 | EC50 [12]: > 200 µM | Neutral Red Uptake test SI [13]: 2 | CPE Inhibition test SI [14]: 6 | Neutral Red Uptake test SI [15]: 1.0 | Neutral Red Uptake test SI [16]: 0 | Neutral Red Uptake test SI [17]: 1.0 | CPE Inhibition test SI [18]: 0 | Neutral Red Uptake test SI [19]: 1

Cc1oncc1C(=O)Nc1cccc(C(F)(F)F)c1 [Compound 99-127, N-(3-trifluoromethylphenyl)-5-methylisoxazol-4-carboxamide]
Neutral Red Uptake test SI [2]: 1.0 | EC50 [3]: > 200 µM | CPE Inhibition test SI [3]: 0 | CPE Inhibition test SI [5]: 0 | CC50 [6]: 67 µM | SI ([7]; HBV, 2.2.15 cells): 0.7 | EC50 [7]: 11 µM | EC90 ([7]; 2.2.15 cells): 96 µM | CPE Inhibition test SI [8]: 0 | CPE Inhibition test SI [9]: 0 | EC50 [9]: > 200 µM | CPE Inhibition test SI [12]: 0 | EC50 [12]: > 200 µM | Neutral Red Uptake test SI [13]: 0 | CPE Inhibition test SI [14]: 0 | Neutral Red Uptake test SI [15]: 1.0 | Neutral Red Uptake test SI [16]: 0 | Neutral Red Uptake test SI [17]: 1.1 | Neutral Red Uptake test SI [19]: 0

Nc1ncnc2c1ncn2C[C@@H](CO)OCP(=O)(O)O [HPMPA, reference compound]
Neutral Red Uptake test SI [11]: >20 | CPE Inhibition test SI [18]: 8

O=C([O-])P(=O)(O)O.[Na+] [PFA, sodium phosphonoformate]
expression of CMV pp65 and IE1 ([20]; 24-48 hr pi): unimpeded | expression of CMV late structural glycoprotein B (gB) ([20]; 96 hours pi): unable to express gB | frequency of each toxicity (renal dysfunction, hypomagnesemia, hypokalemia, hypocalcemia, seizures, fever, rash) ([1]; intravenous foscarnet): more than 5% of recipients | CMV DNA polymerase activity [21]: complete inhibition at 1 mM | quantity of viral DNA synthesized [22]: no detectable CMV DNA

Cc1oncc1C(=O)Nc1ccc(C(F)(F)F)cc1 [leflunomide, N-(4-trifluoromethylphenyl)-5-methylisoxazol-4-carboxamide]
viral load in salivary glands, lungs and spleens [23]: significantly reduced viral load | toxicity in animal studies [24]: liver and cardiac toxicity

NC(=O)c1ncn([C@@H]2O[C@H](CO)[C@@H](O)[C@H]2O)n1 [ribavirin, reference compound]
EC50 ([5]; MA104, MA-104 cells, read-out: CPE Inhibition test EC50): 230 µM | EC50 ([8]; human respiratory syncytial virus, MA104, MA-104 cells, read-out: CPE Inhibition test EC50): 290 µM | EC50 ([13]; Measles morbillivirus, CV-1 cells, read-out: Neutral Red Uptake test EC50): 41 µM | EC50 ([14]; Measles morbillivirus, CV-1 cells, read-out: CPE Inhibition test EC50): 41 µM | EC50 ([16]; human respiratory syncytial virus, MA104, MA-104 cells, read-out: Neutral Red Uptake test EC50): 82 µM | EC50 ([19]; MA104, MA-104 cells, read-out: Neutral Red Uptake test EC50): 120 µM

O=c1ccn([C@@H]2O[C@H](CO)[C@@H](O)[C@H]2O)c(=O)[nH]1 [uridine]
CC50 [6]: > 100 µM | EC50 [7]: > 100 µM | EC90 ([7]; 2.2.15 cells): > 100 µM
